Several values for one entry are separate records, joined by “and”; a condition that tells them apart may be missing. Equal entries are not always repeated. Where two headings read alike, the source gives them in different places.
Legend:
A549 = experiment: cells; format: cell-based, human; conditions: for A549 SI: selectivity index = IC50 BALB/3T3 / IC50 A549
Text: (§1) The A549 and MCF7 cell lines were purchased from the European Collection of Authenticated Cell Cultures (ECACC, Salisbury, U.K., 86012804 and 86012803). The LoVo cell line was purchased from the American Type Culture Collection (CCL-229, ATCC, Manassas, VA), and LoVo/DX by courtesy of Prof. E. Borowski (Technical University of Gdańsk, Gdańsk, Poland). The BALB/3T3 cell line was purchased from the American Type Culture Collection (CCL-163, ATCC, Manassas, VA). All of the cell lines are maintained in the Institute of Immunology and Experimental Therapy (IIET), Wroclaw, Poland.
(§2) A549 cells were cultured in a mixture of OptiMEM and Roswell Park Memorial Institute (RPMI) 1640 (1:1) medium (IIET, Wroclaw, Poland), supplemented with 10% fetal bovine serum HyClone (GE Healthcare) and 2 mM L-glutamine (Sigma-Aldrich, Germany). MCF7 cells were cultured in a mixture of Eagle’s medium (IIET, Wroclaw, Poland), supplemented with 10% fetal bovine serum, 2 mM L-glutamine, and insulin (Sigma-Aldrich, Germany). LoVo and LoVo/DX cells were cultured in F12K medium (Corning), supplemented with 10% fetal bovine serum HyClone (GE Healthcare) and 0.1 μg/mL doxorubicin (Accord) for LoVo/DX. BALB/3T3 fibroblasts were cultured in Dulbecco’s medium (Gibco), supplemented with 10% fetal bovine serum (GE Healthcare) and 2 mM L-glutamine (Sigma-Aldrich, Germany). All culture media contained antibiotics: 100 U/mL penicillin (Polfa-Tarchomin, Poland) and 0.1 mg/mL streptomycin (Sigma-Aldrich, Germany). All cell lines were cultured during entire experiment in humid atmosphere at 37 °C and 5% CO2.
(§3) All cell lines were exposed to each tested agent at different concentrations in the range 100–0.00001 μg/mL for 72 h. The cells were also exposed to the reference drug cisplatin (Teva Pharmaceuticals, Poland) and doxorubicin (Accord Healthcare Limited, U.K.). Additionally, all cell lines were exposed to dimethyl sulfoxide (DMSO) (solvent used for tested compounds) (POCh, Poland) at concentrations corresponding to those present in tested agents dilutions. After 72 h, sulforhodamine B (SRB) assay was performed.[57]
(§4) After 72 h of incubation with the tested compounds, the cells were fixed in situ by gently adding cold 50% trichloroacetic acid (TCA) (POCh, Poland) and were incubated at room temperature for 1 h. Then, the wells were washed four times with water and air-dried. Next, 0.1% solution of sulforhodamine B (Sigma-Aldrich, Germany) in 1% acetic acid (POCh, Poland) was added to each well and the plates were incubated at room temperature for 0.5 h. After incubation time, unbound dye was removed by washing plates four times with 1% acetic acid, whereas stain bound to cells was solubilized with 10 mM Tris base (Sigma-Aldrich, Germany). Absorbance of each solution was read at Synergy H4 Hybrid Multi-Mode Microplate Reader (BioTek Instruments) at the 540 nm wavelength.
(§5) IC50 values were calculated in Excel sheet using formulas adapted by Mateusz Psurski fromCheburator 0.4, Dmitry Nevozhay software (version 1.2.0 software by Dmitry Nevozhay, 2004–2014, http://www.cheburator.nevozhay.com, freely available) for each experiment.[58] Compounds at each concentration were tested in triplicate in a single experiment, and each experiment was repeated at least three times independently.

LoVo/DX = experiment: cells; format: cell-based, human; conditions: for IC50: Homo sapiens, LoVo/DX, 72 h, read-out: LoVo/DX IC50 (nM), 72 h exposure, SRB, mean ± SD; for LoVo/DX RI: resistance index = IC50 LoVo/DX / IC50 LoVo; for LoVo/DX SI: selectivity index = IC50 BALB/3T3 / IC50 LoVo/DX
Text: as §1, §2, §3, §4, §5

LoVo = experiment: cells; format: cell-based, human; conditions: for IC50: Homo sapiens, LoVo, 72 h, read-out: LoVo IC50 (nM); for LoVo SI: selectivity index = IC50 BALB/3T3 / IC50 LoVo
Text: as §1, §2, §3, §4, §5

MCF-7 = experiment: cells; format: cell-based, human; conditions: for IC50: Homo sapiens, MCF7, 72 h, read-out: MCF-7 IC50 (nM); for MCF-7 SI: selectivity index = IC50 BALB/3T3 / IC50 MCF-7
Text: as §1, §2, §3, §4, §5

BALB/3T3 = experiment: In vitro antiproliferative activity, SRB assay, normal fibroblasts BALB/3T3; format: cell-based; conditions: Mus musculus, BALB/3T3, normal murine embryonic fibroblasts, 72 h, mean ± SD
Text: as §1, §2, §3, §4, §5

[1] = Homo sapiens, A549, 72 h, read-out: A549 IC50 (nM), 72 h exposure, SRB, mean ± SD

| SMILES | IC50 (A549; [1]) [nM] | A549 SI (A549) | IC50 (LoVo/DX) [nM] | LoVo/DX RI (LoVo/DX) | LoVo/DX SI (LoVo/DX) | IC50 (LoVo) [nM] | LoVo SI (LoVo) | IC50 (MCF-7) [nM] | MCF-7 SI (MCF-7) | IC50 (BALB/3T3) [nM] | IC50 (A549; read-out: A549 IC50, 72 h exposure, SRB, mean ± SD) [nM] |
| --- | --- | --- | --- | --- | --- | --- | --- | --- | --- | --- | --- |
| CNc1ccc2c(cc1=O)[C@@H](n1nnc(C(=O)O)c1C(=O)O)CCc1cc(OC)c(OC)c(OC)c1-2 [Compound 23] | 1000 ± 240 | 1.2 | 2900 ± 390 | 3.4 | 0.4 | 860 ± 190 | 1.4 | 990 ± 82 | 1.2 | 1200 ± 14 | – |
| CNc1ccc2c(cc1=O)[C@@H](n1cc(CNC(=O)CCNC(=O)OC(C)(C)C)nn1)CCc1cc(OC)c(OC)c(OC)c1-2 [Compound 34] | 26 ± 11 | 10.4 | 17000 ± 1600 | 510 | <0.1 | 33 ± 10 | 8.2 | 10 ± 2.1 | 27.0 | 270 ± 67 | – |
| CCCc1cn([C@H]2CCc3cc(OC)c(OC)c(OC)c3-c3ccc(NC)c(=O)cc32)nn1 [Compound 6] | 15 ± 3.7 | 1.6 | 85 ± 21 | 6.5 | 0.3 | 13 ± 1.9 | 1.8 | 11 ± 1.2 | 2.2 | 24 ± 9.3 | – |
| CNc1ccc2c(cc1=O)[C@@H](n1cc(CCl)nn1)CCc1cc(OC)c(OC)c(OC)c1-2 [Compound 10] | 13 ± 3.3 | 1.0 | 95 ± 24 | 7.9 | 0.1 | 12 ± 2.4 | 1.1 | 8.6 ± 3.2 | 1.5 | 13 ± 3 | – |
| CCCCCCCCCCCCCCCC(=O)OCc1cn([C@H]2CCc3cc(OC)c(OC)c(OC)c3-c3ccc(NC)c(=O)cc32)nn1 [Compound 24] | 16 ± 5.2 | 3.4 | 3300 ± 280 | 170 | <0.1 | 19 ± 7 | 2.8 | 11 ± 0.7 | 4.9 | 54 ± 20 | – |
| CNc1ccc2c(cc1=O)[C@@H](n1cc(-c3ccccn3)nn1)CCc1cc(OC)c(OC)c(OC)c1-2 [Compound 16] | 35 ± 10 | 1.2 | 210 ± 65 | 7.8 | 0.2 | 27 ± 14 | 1.5 | 28 ± 12 | 1.5 | 41 ± 4 | – |
| CNc1ccc2c(cc1=O)[C@@H](n1cc(COC(=O)c3ccncc3)nn1)CCc1cc(OC)c(OC)c(OC)c1-2 [Compound 28] | 9.5 ± 2.9 | 1.3 | 1000 ± 94 | 130 | <0.1 | 7.9 ± 3.3 | 1.5 | 3.9 ± 1.1 | 3.1 | 12 ± 1.1 | – |
| CNc1ccc2c(cc1=O)[C@@H](n1cc(CCO)nn1)CCc1cc(OC)c(OC)c(OC)c1-2 [Compound 11] | 14 ± 2 | 1.3 | 1700 ± 290 | 120 | <0.1 | 14 ± 6.5 | 1.3 | 13 ± 1.6 | 1.4 | 18 ± 7.1 | – |
| CNc1ccc2c(cc1=O)[C@@H](n1cc(C3(O)CCCCC3)nn1)CCc1cc(OC)c(OC)c(OC)c1-2 [Compound 13] | 94 ± 30 | 1.1 | 1700 ± 160 | 26 | 0.1 | 65 ± 33 | 1.5 | 88 ± 50 | 1.1 | 100 ± 33 | – |
| CNc1ccc2c(cc1=O)[C@@H](n1cc(CNC(=O)OCC(Cl)(Cl)Cl)nn1)CCc1cc(OC)c(OC)c(OC)c1-2 [Compound 42] | 1.2 to 1.9 | 1.4 | 470 ± 300 | 120 | <0.1 | 3.8 ± 4.2 | 0.7 | 2.5 ± 1.8 | 1.1 | 2.7 ± 2.4 | 1.9 ± 2.9 |
| CNc1ccc2c(cc1=O)[C@@H](n1cc(CO)nn1)CCc1cc(OC)c(OC)c(OC)c1-2 [Compound 9] | 12 ± 2.1 | 1.2 | 1500 ± 210 | 140 | <0.1 | 11 ± 5.6 | 1.3 | 6.8 ± 1 | 2.1 | 14 ± 2.1 | – |
| CNc1ccc2c(cc1=O)[C@@H](n1cc(CNC(=O)c3ccncc3)nn1)CCc1cc(OC)c(OC)c(OC)c1-2 [Compound 36] | 22 ± 7.4 | 3.4 | 9100 ± 790 | 700 | <0.1 | 13 ± 3.4 | 5.7 | 12 ± 1.4 | 6.3 and 6.2 | 74 ± 22 | – |
| CNc1ccc2c(cc1=O)[C@@H](n1cc(C(C)(C)O)nn1)CCc1cc(OC)c(OC)c(OC)c1-2 [Compound 12] | 37 ± 4.2 | 1.4 | 2400 ± 550 | 130 | <0.1 | 19 ± 3.9 | 2.6 | 13 ± 3.4 | 3.8 | 50 ± 4.5 | – |

— PMC8515607 (ACS Omega, 2021)
